# According to patent publication US20250040546A1, “DETERGENT FOR VIRAL INACTIVATION” (Bristol-Myers Squibb Company, priority 2021, published 2025):
# Like-named read-outs stand apart in the source and are kept apart here.
# Assays:
# [1] = test system: X-MuLV; test: Detergent-mediated virus inactivation of X-MuLV in mAb1 harvest (pfu-based LRV); format: cell-based, Xenotropic Murine Leukemia Virus; details: for Log reduction value (LRV) of X-MuLV: 60 minutes hold at 2-8° C.
# Description: (§1) Three lipid-enveloped viruses X-MuLV, HSV-1 and A-MuLV (Amphotropic Murine Leukemia Virus) were investigated for VI in the cell culture fluid of a monoclonal antibody (mAb1) and a fusion protein (Fus1) for a range of detergents and detergent concentrations (FIG. 6). Protein concentration and buffer matrix were dictated by that in the harvest for the specific therapeutic and process. A temperature of 2-8° C. was used as a worst case for inactivation and incubation times of 0, 5 and 60 minutes were used to explore the kinetics of inactivation. Viral clearance was measured in units of Log Reduction Value (LRV) which was calculated from pfu (Plaque Forming Units) as follows
# (§2) Virus inactivation studies were conducted for X-MuLV in mAb1 harvest, HSV-1 and A-MuLV in Fus1 harvest at 0, 5 and 60 minutes at 2-8° C. The inactivation studies for each condition were conducted in duplicates with results varying within 0.5 LRV. The lower of the two LRVS was plotted in FIG. 6 to remain conservative regarding the extent of inactivation. The error bars represent the assay variability.
# The mechanism of detergent-mediated VI can share similarities with pH-mediated VI and is likely a characteristic of the detergent-protein-virus system under consideration. Detergents could unfold or denature specific viral surface glycoproteins that are critical for the host cell infection as is the case for X-MuLV [Brorson et al. (2003) Biotechnology and Bioengineering 82(3):321-329; Simons & Ehehalt (2002) Journal of Clinical Investigation 110(5):597-603]. Alternately, detergents could inactivate viruses such as HSV-1 through dissolution of the viral lipid envelope or preferential partitioning of the membrane protein into detergent micelles [Welling-Wester et al. (1998) Journal of chromatography A 816(1):29-37]. Three lipid-enveloped viruses commonly used for viral validation studies, X-MuLV, HSV-1 and A-MuLV (Amphotropic Murine Leukemia Virus), were investigated for VI. Any VI condition showing LRV ≥4.0 after a 60 minute hold at 2-8° C., worst case temperature for VI, was considered effective. The extent of inactivation from different detergents was compared with Triton X-100.
# [2] = cited from earlier work
# [3] = test system: lipid-enveloped viruses; test: Viral inactivation, summary statements (LRV equal or above 4 criterion); format: cell-based; details: detergent below its CMC, e.g. 0.5×CMC; virus not named
# Description: The present disclosure relates to detergent-mediated inactivation of lipid-enveloped viruses. […] The current commercially available detergent for such process is Triton X-100.
# Several environmentally friendly detergents for the viral inactivation step of biologics manufacturing processes have been identified in the art, e.g., Lauryldimethylamine Oxide (LDAO) and ECOSURF™ EH9. These systems for viral inactivation use a single detergent. The present disclosure provides a detergent mixture comprising two environmentally sustainable detergents: n-Octyl-β-D-Glucopyranoside (OG) and n-Dodecyl-β-D-Maltopyranoside (DDM). […] Accordingly, the disclosed combination of OG and DDM can be used as substitute of Triton X-100 for the viral inactivation step in the production of biologics, for example, in the process used to manufacture ORENCIA®.
# [4] = target: T1, Fus2 (Homo sapiens, UniProt P16410, A66Y/L141E); test: Oxidation of Fus2 (tryptic digest RP-UPLC) after detergent spiking of harvest; format: physicochemical; details: Fus2 harvest spiked with detergent at 1×CMC, protein A eluate
# T1 construct: made in house; host or cells: CHO
# Description: (§3) The protein sample was denatured in denaturation buffer (8 M guanidine, 50 mM TRIS, pH 8.0) and the cystine disulfide bridges were reduced with dithiothreitol (200 mM DTT) followed by S-alkylation with iodoacetamide (400 mM IAM). The denatured, reduced protein was buffer-exchanged (50 mM TRIS, 10 mM CaCl2), pH 7.6) prior to digestion with trypsin. The resulting digested mixture was then analyzed by reverse-phase ultra-performance liquid chromatography (RP-UPLC) using UPLC BEH C18 Column, […], 130 angstrom, 2.1×100 mm (Waters, Catalog no. 186002352) with Mobile Phase A (0.1% TFA, 50 mM Methionine in HPLC Grade Water) and Mobile Phase B (0.1% TFA, 50 mM Methionine in 80% ACN and 20% HPLC grade water). Protein detection at 215 nm absorbance and fluorescent excitation/emission of 275 nm/303 nm and 280 nm/348 nm was used to quantify relative levels of oxidation and deamidation respectively.
# [5] = target: T2, Fus1 (Homo sapiens, UniProt P16410); test: Oxidation of Fus1 (tryptic digest RP-UPLC) after detergent spiking of harvest; format: physicochemical; details: Fus1 harvest spiked with detergent at 1×CMC, protein A eluate
# T2 construct: made in house; host or cells: CHO
# Description: as §3
# [6] = test system: B7.1 Ig; test: Potency: Surface Plasmon Resonance binding of CTLA-4 domain of Fus1 to B7.1 Ig in presence of detergent; details: high concentration Fus1 DS; detergent at 10×CMC; 24 hours, room temperature
# Description: The potency was determined by measuring the binding efficacy of the CTLA-4 (cytotoxic T-lymphocyte-associated protein 4) domain of the fusion proteins against the complementary binding domain of membrane protein B7.1 Ig, typically found on activated antigen-presenting cells (APC). Drug efficacy for the purified DS was evaluated using a Surface Plasmon Resonance assay; the binding efficacy of the CTLA-4 domain of Fus1 and Fus2 against a high concentration of the peripheral membrane protein B7.1 Ig was examined. Due to the influence of impurities on the binding efficacy, only DS was tested.
# [7] = test system: fusion proteins Fus1 and Fus2; test: SEC analysis of HMW formation and aggregation kinetics of fusion proteins with detergents; format: physicochemical
# Description: Size exclusion chromatography (SEC) was performed in a Waters HPLC Alliance 2695 System using TSKgel G3000SWXL Column (Tosoh Bioscience, Catalogue no. 085430) with guard column (Tosoh Bioscience, Catalogue no. 08541) in line. A mobile phase of 0.2 M Sodium phosphate, monobasic, 0.9% NaCl, pH 7.0 was used with 20 μL injection volumes at 1 to 10 mg/mL target protein concentrations with a flow rate of 1 mL/minute. Tandem SEC was performed with 50 μL injection volumes with a flow rate of 0.5 mL/minute using 6 TSKgel G3000SWXL Column using 0.2 M KH2PO4, 0.9% NaCl, pH 6.8 as mobile phase.
# Given N is the monomer species, No is the initial monomer % at time t=0, aggregation follows first order kinetics with k1 being the rate constant of aggregation as shown in Equation (1) (Derivation in Supplemental Information).
# [8] = Sialic acid content of Fus1 and Fus2 Protein A eluates of detergent-spiked harvest; format: physicochemical; details: stated as within acceptable range
# Description: Sialic acids are neuraminic acids modified by the addition of an acetyl group (N-acetylneuraminic acid/NANA) or a glycol group (N-glycolylneuraminic acid/NGNA) .Sialic acid contents are reported as normalized molar ratios, which are the total moles of NANA and NGNA per mole of recombinant protein. The protein concentrations were determined by UV absorbance at 280 nm. Sialic acid content was determined by partial acidic hydrolysis using sulfuric acid at 0.1 N final concentration at 80° C. for 1 hour followed by reversed phase HPLC using Rezex Monosaccharide RHM HPLC column (Phenomenex, Catalog No. OOH-0132-KO with respective guard column (Phenomenex, Catalog No. 03B-0132-KO). Elution was conducted with 5 mM Sulfuric acid at 0.6 mL/min and 40° C.
# [9] = Isoelectric point (pI); format: physicochemical
# [10] = test system: A-MuLV; test: Detergent-mediated virus inactivation of A-MuLV in Fus1 harvest (pfu-based LRV); format: cell-based, Amphotropic Murine Leukemia Virus; details: detergent concentration not stated
# Description: as §1, §2
# The mechanism of detergent-mediated VI can share similarities with pH-mediated VI and is likely a characteristic of the detergent-protein-virus system under consideration. […]
# [11] = test system: HSV-1; test: Detergent-mediated virus inactivation of HSV-1 in Fus1 harvest (pfu-based LRV); format: cell-based, Herpes Simplex Virus type 1; details: detergent concentration not stated
# [12] = Slinde & Flatmark (1976); cited from earlier work
# T1 sequence (P16410 with tags, fused parts or gaps A66Y/L141E limits assumed): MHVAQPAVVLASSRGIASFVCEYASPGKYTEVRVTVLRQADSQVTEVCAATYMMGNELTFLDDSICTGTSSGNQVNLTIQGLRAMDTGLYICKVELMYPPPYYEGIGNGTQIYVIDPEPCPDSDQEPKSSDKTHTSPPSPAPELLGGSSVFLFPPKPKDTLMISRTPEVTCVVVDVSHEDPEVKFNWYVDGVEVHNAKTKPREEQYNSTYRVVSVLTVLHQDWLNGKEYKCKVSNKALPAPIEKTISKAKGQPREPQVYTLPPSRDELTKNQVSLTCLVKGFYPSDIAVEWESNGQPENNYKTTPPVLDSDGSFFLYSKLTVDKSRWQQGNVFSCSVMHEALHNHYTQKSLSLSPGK
# T2 sequence (P16410 with tags, fused parts or gaps): as the sequence (P16410 with tags, fused parts or gaps A66Y/L141E limits assumed) above, with Y29A, E104L counted along it
compound,measurement,setting,value
"CCCCCCCCCCO[C@@H]1O[C@H](CO)[C@@H](O[C@H]2O[C@H](CO)[C@@H](O)[C@H](O)[C@H]2O)[C@H](O)[C@H]1O [DM, n-Decyl-β-D-Maltopyranoside]",Log reduction value (LRV) of X-MuLV,[1]; detergent at 10×CMC,2.0 LRV
"CCCCCCCCCCCC[N+](C)(C)[O-] [LDAO, Lauryldimethylamine Oxide]",LRV,[2]; fusion protein at 2-8° C. (Conley et al.),~3.0 LRV
same,LRV,[2]; fusion protein at room temperature (Conley et al.),~4.0 LRV
same,LRV,"[2]; mAb under the same conditions, 2-8° C. (Conley et al.)",4.0 LRV
"CCCCCCCCO[C@@H]1O[C@H](CO)[C@@H](O)[C@H](O)[C@H]1O [OG, n-Octyl-β-D-Glucopyranoside]",Viral inactivation (defined as a LRV equal or above 4),[3],insufficient for viral inactivation
same,Oxidation of Fus2,[4],higher oxidation
same,Oxidation of Fus1,[5],higher oxidation
same,Potency (B7 binding efficiency relative to reference material),[6],less than 60%
same,HMW formation (rank among detergents),"[7]; SEC, DS and clarified harvest of Fus1 and Fus2",greatest
same,"Rate of aggregation (rank among OG, DDM, LDAO)",[7]; high concentration DS of Fus1 and Fus2,fastest rate of aggregation
"Fus1: fusion protein abatacept (CTLA4-Ig, SEQ ID NO:1 proteins)",NANA (N-acetylneuraminic acid): protein molar concentration,[8],8 to 12%
same,pI,[9],~5.0
Fus2: fusion protein belatacept (SEQ ID NO:2 proteins),NANA (N-acetylneuraminic acid): protein molar concentration,[8],6 to 8.5%
same,pI,[9],~5.0
Polysorbate 80 [PS80],Inactivation of A-MuLV,[10],No inactivation
same,Inactivation of HSV-1,[11],No inactivation
same,Inactivation of X-MuLV,[1]; detergent concentration not stated,No inactivation
Triton X-100,HLB value,[12],13.5
same,Log reduction value (LRV) of X-MuLV,[1]; detergent at 1×CMC,≥ 4.85±0.5 LRV
same,Log reduction value (LRV) of X-MuLV,[1]; detergent at 10×CMC,≥ 4.85±0.5 LRV
